Active and inactive are the calls of the source. The calls are words filed in the database; no cut-off is given here.
Experiments:
[1] = target: Cytochrome P450 2C9 (Homo sapiens, UniProt P11712); test: Inhibition of CYP2C9 in human microsomes in presence of NADPH; format: ADME
[2] = target: T1, Cytochrome P450 1A2 (Homo sapiens, UniProt P05177); test: Inhibition of CYP1A2 in human microsomes in presence of NADPH; format: ADME
T1 sequence (P05177 whole entry): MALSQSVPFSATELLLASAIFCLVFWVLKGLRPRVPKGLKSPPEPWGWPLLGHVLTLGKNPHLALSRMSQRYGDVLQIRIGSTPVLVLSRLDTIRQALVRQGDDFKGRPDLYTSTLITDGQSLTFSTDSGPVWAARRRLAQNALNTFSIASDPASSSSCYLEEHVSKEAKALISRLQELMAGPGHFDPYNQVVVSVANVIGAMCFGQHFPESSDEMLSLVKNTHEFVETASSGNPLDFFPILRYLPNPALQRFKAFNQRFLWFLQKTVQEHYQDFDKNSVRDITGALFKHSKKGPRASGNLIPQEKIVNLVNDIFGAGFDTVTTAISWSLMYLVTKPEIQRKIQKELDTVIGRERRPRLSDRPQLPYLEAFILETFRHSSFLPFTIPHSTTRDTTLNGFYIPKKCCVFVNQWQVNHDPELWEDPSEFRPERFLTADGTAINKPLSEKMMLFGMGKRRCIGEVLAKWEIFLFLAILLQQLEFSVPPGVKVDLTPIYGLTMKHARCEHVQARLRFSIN

[3] = target: High affinity 3',5'-cyclic-AMP phosphodiesterase 7A (Homo sapiens, UniProt Q13946); test: Inhibition of PDE7A1 (130 to 482 residues) (unknown origin) expressed in Escherichia coli BL21(DE3) using [3H]cGMP or [3H]cAMP as substrate after 15 mins by liquid scintillation counting method
[4] = MRT (0 to t) in Sprague-Dawley rat at […], iv by LC-MS/MS analysis; format: ADME, organism-based; settings: in vivo
[5] = Hepatic clearance in human microsomes at 0.5 uM; format: ADME, microsome; settings: liver microsomes
[6] = target: cAMP and cAMP-inhibited cGMP 3',5'-cyclic phosphodiesterase 10A (Homo sapiens, UniProt Q9Y233); test: Inhibition of PDE10A (449 to 770 residues) (unknown origin) expressed in Escherichia coli BL21(DE3) using [3H]cGMP or [3H]cAMP as substrate after 15 mins by liquid scintillation counting method
[7] = tested on: Mus musculus; test: Acute toxicity in Kunming mouse assessed as effect on food consumption at 1000 to 1500 mg/kg, po administered as single dose measured up to 2 weeks post dose; format: organism-based; settings: in vivo, 336 h
[8] = tested on: Mus musculus; test: Acute toxicity in Kunming mouse assessed as effect on body weight at 1000 to 1500 mg/kg, po administered as single dose measured up to 2 weeks post dose; format: organism-based; settings: in vivo, 336 h
[9] = AUC (0 to t) in Sprague-Dawley rat at 5 mg/kg, po by LC-MS/MS analysis; format: ADME, organism-based; settings: in vivo
[10] = tested on: Liver; test: Drug metabolism in rat liver microsomes assessed as metabolic rate; format: ADME, microsome
[11] = tested on: Liver; test: Drug metabolism in human liver microsomes assessed as metabolic rate; format: ADME, microsome
[12] = Half life in Sprague-Dawley rat at 5 mg/kg, po by LC-MS/MS analysis; format: ADME, organism-based; settings: in vivo
[13] = Cmax in Sprague-Dawley rat at 5 mg/kg, po by LC-MS/MS analysis; format: ADME, organism-based; set-up: dose 5 mg/kg, route oral; settings: in vivo
[14] = target: Cytochrome P450 3A4 (Homo sapiens, UniProt P08684); test: Inhibition of CYP3A4 in human microsomes in presence of NADPH; format: ADME
[15] = Cmax in Sprague-Dawley rat at […], iv by LC-MS/MS analysis; format: ADME, organism-based; set-up: dose 2.5 mg/kg, route intravenous; settings: in vivo
[16] = Oral bioavailability in Sprague-Dawley rat at 5 mg/kg by LC-MS/MS analysis; format: ADME, organism-based; settings: in vivo
[17] = tested on: Rattus norvegicus; test: Reduction in MCT-induced increase in mean pulmonary arterial pressure in Wistar rat model of monocrotaline pulmonary arterial hypertension assessed as mean pulmonary arterial pressure at 5 mg/kg, po for 3 weeks (reference value: 32.74 mmHg); format: functional
[18] = target: Cytochrome P450 2D6 (Homo sapiens, UniProt P10635); test: Inhibition of CYP2D6 in human microsomes in presence of NADPH; format: ADME
[19] = AUC (0 to infinity) in Sprague-Dawley rat at […], iv by LC-MS/MS analysis; format: ADME, organism-based; set-up: dose 2.5 mg/kg, time infinity, route intravenous; settings: in vivo
[20] = tested on: Rattus norvegicus; test: Toxicity in Sprague-Dawley rat assessed as effect on body weight up to 300 mg/kg, po daily for 2 weeks; format: organism-based; settings: in vivo, 336 h
[21] = target: cGMP-inhibited 3',5'-cyclic phosphodiesterase 3A (Homo sapiens, UniProt Q14432); test: Inhibition of PDE3A (679 to 1087 residues) (unknown origin) expressed in Escherichia coli BL21(DE3) using [3H]cAMP or [3H]cGMP as substrate after 15 mins by liquid scintillation counting method
[22] = AUC (0 to t) in Sprague-Dawley rat at […], iv by LC-MS/MS analysis; format: ADME, organism-based; settings: in vivo
[23] = target: Cytochrome P450 2C19 (Homo sapiens, UniProt P33261); test: Inhibition of CYP2C19 in human microsomes in presence of NADPH; format: ADME
[24] = tested on: Rattus norvegicus; test: Inhibition of hypertrophic response in Wistar rat model of monocrotaline pulmonary arterial hypertension assessed as reduction of MCT-induced increase in small pulmonary artery wall thickness at 5 mg/kg, po for 3 weeks; format: functional, organism-based
[25] = Hepatic clearance in rat liver microsomes at 0.5 uM; format: ADME, microsome
[26] = Half life in rat liver microsomes at 0.5 uM; format: ADME, microsome
[27] = target: cGMP-dependent 3',5'-cyclic phosphodiesterase (Homo sapiens, UniProt O00408); test: Inhibition of PDE2A (580 to 919 residues) (unknown origin) expressed in Escherichia coli BL21(DE3) using [3H]cGMP or [3H]cAMP as substrate after 15 mins by liquid scintillation counting method
[28] = target: Dual specificity calcium/calmodulin-dependent 3',5'-cyclic nucleotide phosphodiesterase 1B (Homo sapiens, UniProt Q01064); test: Inhibition of PDE1B (10 to 487 residues) (unknown origin) expressed in Escherichia coli BL21(DE3) using [3H]cAMP or [3H]cGMP as substrate after 15 mins by liquid scintillation counting method
[29] = tested on: Liver; test: Intrinsic clearance in human liver microsomes at 0.5 uM; format: ADME, microsome
[30] = tested on: Rattus norvegicus; test: Toxicity in Sprague-Dawley rat assessed as overt toxicity up to 300 mg/kg, po daily for 2 weeks; format: organism-based; settings: in vivo, 336 h
[31] = Apparent clearance in rat liver microsomes at 0.5 uM; format: ADME, microsome; settings: read-out: CLH(app)
[32] = Acute toxicity in Kunming mouse administered as single oral dose measured up to 2 weeks post dose; settings: in vivo
[33] = AUC (0 to infinity) in Sprague-Dawley rat at 5 mg/kg, po by LC-MS/MS analysis; format: ADME, organism-based; set-up: dose 5 mg/kg, time infinity, route oral; settings: in vivo
[34] = MRT (0 to t) in Sprague-Dawley rat at 5 mg/kg, po by LC-MS/MS analysis; format: ADME, organism-based; settings: in vivo

Sequence of cGMP-dependent 3',5'-cyclic phosphodiesterase (O00408 whole entry, the tested form may be a part): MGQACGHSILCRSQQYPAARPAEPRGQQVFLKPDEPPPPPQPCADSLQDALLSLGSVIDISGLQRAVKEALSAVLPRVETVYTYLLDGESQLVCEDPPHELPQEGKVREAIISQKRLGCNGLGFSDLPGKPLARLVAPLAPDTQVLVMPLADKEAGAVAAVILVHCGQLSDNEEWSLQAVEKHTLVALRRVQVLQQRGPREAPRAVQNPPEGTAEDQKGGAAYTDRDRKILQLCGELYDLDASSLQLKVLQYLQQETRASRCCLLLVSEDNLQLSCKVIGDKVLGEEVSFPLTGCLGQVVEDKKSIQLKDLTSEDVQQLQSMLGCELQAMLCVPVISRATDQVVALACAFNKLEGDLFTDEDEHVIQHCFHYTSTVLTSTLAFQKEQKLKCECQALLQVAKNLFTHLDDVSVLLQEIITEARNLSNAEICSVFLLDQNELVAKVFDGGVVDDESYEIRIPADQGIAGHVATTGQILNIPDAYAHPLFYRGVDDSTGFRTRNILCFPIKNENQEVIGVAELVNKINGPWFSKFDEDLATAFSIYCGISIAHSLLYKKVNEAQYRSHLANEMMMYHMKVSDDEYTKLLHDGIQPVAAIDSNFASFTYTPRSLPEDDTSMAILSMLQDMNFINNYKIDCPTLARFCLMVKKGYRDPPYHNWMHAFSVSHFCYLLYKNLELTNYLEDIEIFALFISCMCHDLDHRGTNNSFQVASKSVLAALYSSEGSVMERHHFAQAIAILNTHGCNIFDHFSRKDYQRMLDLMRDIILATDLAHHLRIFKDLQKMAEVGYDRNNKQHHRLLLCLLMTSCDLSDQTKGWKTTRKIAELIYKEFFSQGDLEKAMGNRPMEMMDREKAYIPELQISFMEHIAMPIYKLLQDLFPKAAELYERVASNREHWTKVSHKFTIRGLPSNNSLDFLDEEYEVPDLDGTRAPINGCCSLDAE
Sequence of Dual specificity calcium/calmodulin-dependent 3',5'-cyclic nucleotide phosphodiesterase 1B (Q01064 whole entry, the tested form may be a part): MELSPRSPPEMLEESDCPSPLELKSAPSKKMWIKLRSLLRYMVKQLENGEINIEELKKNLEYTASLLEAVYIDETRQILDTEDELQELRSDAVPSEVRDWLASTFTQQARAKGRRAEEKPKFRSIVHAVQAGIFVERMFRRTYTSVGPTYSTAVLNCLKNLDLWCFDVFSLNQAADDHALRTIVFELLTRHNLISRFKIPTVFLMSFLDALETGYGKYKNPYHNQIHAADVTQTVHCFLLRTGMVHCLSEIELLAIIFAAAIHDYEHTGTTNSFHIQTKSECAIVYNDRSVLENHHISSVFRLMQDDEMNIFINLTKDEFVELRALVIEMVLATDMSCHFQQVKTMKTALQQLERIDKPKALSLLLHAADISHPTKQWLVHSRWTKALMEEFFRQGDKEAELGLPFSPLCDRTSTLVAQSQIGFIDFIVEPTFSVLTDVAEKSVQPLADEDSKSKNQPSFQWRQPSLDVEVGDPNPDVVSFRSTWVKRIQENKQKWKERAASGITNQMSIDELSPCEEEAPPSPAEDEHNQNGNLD
Sequence of Cytochrome P450 2C9 (P11712 whole entry): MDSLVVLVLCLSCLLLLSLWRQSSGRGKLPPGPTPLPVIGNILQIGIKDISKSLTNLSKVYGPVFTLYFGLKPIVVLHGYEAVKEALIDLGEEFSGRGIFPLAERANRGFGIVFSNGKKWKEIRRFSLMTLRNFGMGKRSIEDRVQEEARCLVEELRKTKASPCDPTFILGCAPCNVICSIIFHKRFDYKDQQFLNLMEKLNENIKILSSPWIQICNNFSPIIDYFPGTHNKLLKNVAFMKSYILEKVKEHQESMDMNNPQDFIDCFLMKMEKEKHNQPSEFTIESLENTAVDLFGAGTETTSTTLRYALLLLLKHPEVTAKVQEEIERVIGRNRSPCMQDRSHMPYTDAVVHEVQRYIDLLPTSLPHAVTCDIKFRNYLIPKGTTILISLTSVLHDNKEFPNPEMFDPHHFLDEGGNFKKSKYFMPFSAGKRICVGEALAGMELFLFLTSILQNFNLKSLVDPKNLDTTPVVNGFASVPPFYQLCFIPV
Sequence of cGMP-inhibited 3',5'-cyclic phosphodiesterase 3A (Q14432 whole entry, the tested form may be a part): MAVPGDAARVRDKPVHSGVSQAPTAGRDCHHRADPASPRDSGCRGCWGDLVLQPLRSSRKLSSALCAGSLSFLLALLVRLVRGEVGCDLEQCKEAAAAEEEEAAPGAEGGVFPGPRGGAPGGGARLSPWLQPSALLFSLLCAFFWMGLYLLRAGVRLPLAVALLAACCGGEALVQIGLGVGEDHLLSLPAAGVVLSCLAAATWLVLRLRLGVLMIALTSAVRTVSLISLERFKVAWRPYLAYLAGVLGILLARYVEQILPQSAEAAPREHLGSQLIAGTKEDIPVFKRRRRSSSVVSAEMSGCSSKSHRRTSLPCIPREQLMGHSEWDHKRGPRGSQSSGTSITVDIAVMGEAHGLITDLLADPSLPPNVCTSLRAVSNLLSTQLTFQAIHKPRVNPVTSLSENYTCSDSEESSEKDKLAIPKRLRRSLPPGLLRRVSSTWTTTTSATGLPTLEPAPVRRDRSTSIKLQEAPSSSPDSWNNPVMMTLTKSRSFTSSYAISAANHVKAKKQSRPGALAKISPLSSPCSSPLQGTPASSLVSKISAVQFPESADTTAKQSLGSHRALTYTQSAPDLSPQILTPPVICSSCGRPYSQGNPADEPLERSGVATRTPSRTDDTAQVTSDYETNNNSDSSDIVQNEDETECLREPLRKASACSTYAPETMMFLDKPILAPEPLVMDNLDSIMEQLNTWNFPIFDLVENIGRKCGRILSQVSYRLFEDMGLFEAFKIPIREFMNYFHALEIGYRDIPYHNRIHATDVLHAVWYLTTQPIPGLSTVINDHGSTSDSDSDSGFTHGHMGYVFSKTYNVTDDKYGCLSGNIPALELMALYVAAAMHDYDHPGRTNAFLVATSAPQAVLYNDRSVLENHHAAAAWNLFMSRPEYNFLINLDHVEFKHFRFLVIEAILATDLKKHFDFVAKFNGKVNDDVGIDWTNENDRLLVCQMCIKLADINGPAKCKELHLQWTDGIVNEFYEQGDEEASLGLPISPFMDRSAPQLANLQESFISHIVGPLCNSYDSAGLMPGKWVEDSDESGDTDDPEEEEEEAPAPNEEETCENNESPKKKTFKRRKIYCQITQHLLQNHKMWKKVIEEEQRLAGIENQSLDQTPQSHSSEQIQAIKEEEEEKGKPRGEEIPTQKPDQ
Sequence of Cytochrome P450 2D6 (P10635 whole entry): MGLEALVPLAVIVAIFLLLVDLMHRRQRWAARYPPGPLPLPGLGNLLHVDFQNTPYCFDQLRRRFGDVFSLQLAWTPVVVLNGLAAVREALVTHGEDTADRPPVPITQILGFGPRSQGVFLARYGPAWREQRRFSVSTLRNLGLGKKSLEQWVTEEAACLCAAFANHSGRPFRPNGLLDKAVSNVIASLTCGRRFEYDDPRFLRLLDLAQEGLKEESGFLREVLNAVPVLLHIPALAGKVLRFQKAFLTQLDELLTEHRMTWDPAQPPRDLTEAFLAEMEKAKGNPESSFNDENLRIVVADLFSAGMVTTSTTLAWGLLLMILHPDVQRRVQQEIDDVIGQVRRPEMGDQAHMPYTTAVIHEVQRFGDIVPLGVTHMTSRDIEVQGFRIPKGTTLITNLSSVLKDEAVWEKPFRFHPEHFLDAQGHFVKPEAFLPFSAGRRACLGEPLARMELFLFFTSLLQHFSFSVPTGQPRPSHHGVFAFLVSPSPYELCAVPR
Sequence of Cytochrome P450 3A4 (P08684 whole entry): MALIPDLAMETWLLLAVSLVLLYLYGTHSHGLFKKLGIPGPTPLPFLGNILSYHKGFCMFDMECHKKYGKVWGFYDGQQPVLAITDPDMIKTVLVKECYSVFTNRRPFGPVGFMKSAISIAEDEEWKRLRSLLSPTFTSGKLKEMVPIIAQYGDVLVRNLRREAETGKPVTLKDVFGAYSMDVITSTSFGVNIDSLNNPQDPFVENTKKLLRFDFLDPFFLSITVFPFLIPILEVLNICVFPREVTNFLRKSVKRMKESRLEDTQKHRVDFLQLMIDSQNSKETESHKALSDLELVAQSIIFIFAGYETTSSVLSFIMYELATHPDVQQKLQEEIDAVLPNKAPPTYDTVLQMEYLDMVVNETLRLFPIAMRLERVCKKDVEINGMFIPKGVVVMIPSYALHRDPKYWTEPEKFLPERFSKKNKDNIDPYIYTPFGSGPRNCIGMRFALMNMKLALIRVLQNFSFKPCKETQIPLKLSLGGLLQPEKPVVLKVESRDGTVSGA
Sequence of High affinity 3',5'-cyclic-AMP phosphodiesterase 7A (Q13946 whole entry, the tested form may be a part): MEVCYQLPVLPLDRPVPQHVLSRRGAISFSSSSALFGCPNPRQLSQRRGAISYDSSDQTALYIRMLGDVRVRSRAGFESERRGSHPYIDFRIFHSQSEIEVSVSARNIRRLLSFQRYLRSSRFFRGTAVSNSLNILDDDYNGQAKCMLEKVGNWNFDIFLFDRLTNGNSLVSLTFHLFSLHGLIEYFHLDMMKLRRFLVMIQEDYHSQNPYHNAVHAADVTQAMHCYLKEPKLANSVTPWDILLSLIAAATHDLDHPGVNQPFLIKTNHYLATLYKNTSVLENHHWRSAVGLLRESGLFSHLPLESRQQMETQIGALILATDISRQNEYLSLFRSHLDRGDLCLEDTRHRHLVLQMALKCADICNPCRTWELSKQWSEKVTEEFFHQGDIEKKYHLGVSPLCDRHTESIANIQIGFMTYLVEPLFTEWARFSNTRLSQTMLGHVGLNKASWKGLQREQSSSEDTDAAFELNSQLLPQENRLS

In the case of O=c1c2ccccc2oc2c(Cc3ccc4c(c3)OCO4)[nH]c(-c3nccs3)c12, the IC50 [1] is reported as > 25 µM, the IC50 [2] is reported as 7.6 µM and the IC50 [3] is reported as > 10 µM. The MRT last [4] was 2.14 h, the CLhep predicted at 0.5 µM [5] was 10.9 mL/min/kg and the IC50 [6] was 0.153 µM. The Activity [7] was “Non-Toxic”, the Activity [8] was “Non-Toxic” and the AUC(0-t) [9] was 2000 ng·h/mL. For the same compound, the K [10] was 0.0281, the K [11] was 0.0124 and the half-life [12] was 5.17 h. The Cmax [13] was 368 ng/mL, the IC50 [14] was > 25 µM and the Cmax [15] was 2360 ng/mL. For the same compound, the bioavailability [16] was 63.4%, the Activity [17] was 18.65 mmHg and the IC50 [18] was > 25 µM. The AUC(0-inf) [19] was 1730 ng·h/mL, the Activity [20] was “Non-Toxic” and the IC50 [21] was > 10 µM. For the same compound, the AUC(0-t) [22] was 1700 ng·h/mL, the IC50 [23] was > 20 µM and the inhibition [24] was “Active”. The CLhep predicted at 0.5 µM [25] was 35.6 mL/min/kg, the half-life at 0.5 µM [26] was 0.412 h and the IC50 [27] was 0.362 µM. For the same compound, the IC50 [28] was > 10 µM, the CLH [29] was 24.8 µL/min/mg and the Activity [30] was “Non-Toxic”. For the same compound, the CLint scaled at 0.5 µM [31] was 101 mL/min/kg, the MTD at 336 h [32] was > 1500 mg/kg and the AUC(0-inf) [33] was 2030 ng·h/mL. For the same compound, the MRT last [34] was 4.76 h.

Reference: ChEMBL document CHEMBL4011656, “Discovery and Optimization of Chromeno[2,3-c]pyrrol-9(2H)-ones as Novel Selective and Orally Bioavailable Phosphodiesterase 5 Inhibitors for the Treatment of Pulmonary Arterial Hypertension” (J Med Chem, 2017)
